Data from the NIST ThermoML archive (doi:10.1021/je030223f).
Several values for one entry are separate records, joined by “and”; a condition that tells them apart may be missing. Equal entries are not always repeated.

Details: Liquid, Calculated from knudsen effusion weight loss

[Br-].[Br-].[Br-].[Tm+3] [thulium tribromide]
Details | vapor or sublimation pressure
921 K | 0.0001148 kPa
924 K | 0.0001259 kPa
927 K | 0.0001349 kPa
931 K | 0.0002042 kPa
937 K | 0.0002042 kPa
938 K | 0.0002188 kPa and 0.0002754 kPa
942 K | 0.0002291 kPa
947 K | 0.000309 kPa and 0.0004074 kPa
949 K | 0.0003467 kPa
952 K | 0.0004074 kPa
953 K | 0.0003631 kPa
956 K | 0.0004571 kPa
958 K | 0.0005888 kPa
961 K | 0.0005012 kPa
964 K | 0.0006607 kPa
965 K | 0.0006607 kPa
967 K | 0.0007762 kPa
968 K | 0.000631 kPa
971 K | 0.0007244 kPa
974 K | 0.0009772 kPa
976 K | 0.000912 kPa
978 K | 0.001096 kPa
980 K | 0.0009772 kPa
984 K | 0.001318 kPa
987 K | 0.001288 kPa
988 K | 0.001514 kPa and 0.001349 kPa
990 K | 0.001445 kPa
995 K | 0.001622 kPa
999 K | 0.002399 kPa
1000 K | 0.001995 kPa
1001 K | 0.002239 kPa
1004 K | 0.00257 kPa and 0.002291 kPa
1006 K | 0.002692 kPa
1007 K | 0.002455 kPa
1009 K | 0.003236 kPa and 0.002951 kPa
1013 K | 0.003236 kPa and 0.004074 kPa
1015 K | 0.003467 kPa and 0.003162 kPa
1019 K | 0.003548 kPa
1020 K | 0.004571 kPa and 0.004677 kPa
1022 K | 0.00537 kPa
1024 K | 0.004365 kPa
1025 K | 0.004677 kPa
1026 K | 0.004786 kPa
1027 K | 0.004571 kPa
1028 K | 0.005623 kPa
1030 K | 0.005623 kPa
1033 K | 0.005495 kPa
1035 K | 0.006607 kPa
1037 K | 0.005754 kPa
1038 K | 0.007762 kPa
1039 K | 0.006918 kPa
1042 K | 0.006607 kPa
1043 K | 0.008511 kPa
1046 K | 0.00955 kPa
1048 K | 0.01288 kPa
1050 K | 0.00955 kPa
1056 K | 0.01349 kPa
1061 K | 0.01445 kPa
1063 K | 0.01318 kPa
1066 K | 0.01995 kPa
1070 K | 0.01995 kPa
1073 K | 0.02754 kPa
1076 K | 0.02512 kPa
1080 K | 0.0263 kPa
1088 K | 0.03388 kPa
1089 K | 0.04074 kPa
1092 K | 0.03467 kPa
1096 K | 0.04266 kPa
1103 K | 0.04677 kPa
1105 K | 0.06457 kPa
1107 K | 0.06166 kPa
1116 K | 0.06761 kPa
1118 K | 0.07943 kPa
1123 K | 0.09772 kPa
1127 K | 0.1047 kPa and 0.09333 kPa
1135 K | 0.1288 kPa
1136 K | 0.1349 kPa
1143 K | 0.166 kPa
1155 K | 0.2138 kPa
